pIC50: −log10 of the molar value. Read-outs that look alike come from different tables or passages of the source.
How the values were obtained:
HBV = assay: Test Example 1-1: anti-HBV assay in HepG2.2.15 cells (test solution 200 μL/well); assay type: cell-based, hepatitis B virus; conditions: culture supernatant
Protocol: Using HepG2.2.15 cells (Proc. Natl. Acad. Sci. USA, 84, 1005-1009, 1987) which have an HBV genome introduced into a hepatoblastoma cell line, HepG2, and persistently produce a virus, the anti-HBV activity of the representative compounds was evaluated in the following procedure.
(§1) The following was used as a medium:
DMEM/F-12, GlutaMAX (manufactured by Invitrogen)+5 μg/mL insulin (manufactured by Wako)+1% penicillin/streptomycin (manufactured by Sigma)+10 mmol/L HEPES (manufactured by Sigma)+50 μmol/L hydrocortisone (manufactured by Sigma)+10% FBS
A mixture of a test compound with dimethyl sulfoxide (DMSO) was further added to the medium to obtain a final concentration of DMSO of 0.25% (v/v), and thus, test solutions containing the test compound at various concentrations were prepared. In addition, a test solution obtained by adding DMSO alone to the medium to obtain a final concentration of 0.25% (v/v) was prepared as a control without addition of a drug.
(1) The HepG2.2.15 cells were suspended in the medium to prepare a. HepG2.2.15 cell suspension at 4×10^5 cells/mL. The suspension was seeded in a 96-well microtiter plate (100 μL/well) and the plate was incubated in a 5% CO2 incubator at 37° C. for 2 days.
(2) The culture supernatant was removed and the cells were washed twice with PBS (−) (100 μL/well).
(3) The test solution (200 μL/well) was added to the plate of (2) and the plate was incubated in a 5% CO2 incubator at 37° C. for 4 days.
(4) The culture supernatant was removed, the test solution (200 μL/well) was added again to the plate, and the plate was incubated in a 5% CO2 incubator at 37° C. for 3 days.
(5) The culture supernatant was collected and treated with a mixture of Buffer AL (manufactured by QIAGEN) and Proteinase K (manufactured by Invitrogen). The amount of DNA of HBV (HBV-DNA) in the obtained solution was absolutely quantified by a real-time PCR method. In addition, HBsAg (hepatitis B surface antigen) in the culture supernatant was absolutely quantified by chemiluminescent enzyme immunoassay using Lumipulse (registered trademark) HBsAg-HQ (manufactured by Fujirebio Inc.). The relative viral load (%) of a well with the compound added to a well without the compound added was calculated. An IC50 of the compound was calculated using a FORECAST function (linear regression method) of Microsoft Office Excel 2007 by plotting the logarithm of the concentration against the relative viral load as a real number.
The IC50 of HBV-DNA was defined as a concentration (or a logarithm dilution of the culture supernatant) of the compound, in which the amount of HBV-DNA is reduced by 50% as compared a control without the compound added.
In addition, the IC50 of HBsAg was defined as a concentration (or a logarithm dilution of the culture supernatant) of the compound, in which the amount of HBsAg is reduced by 50% as compared a control without the compound added.

HBV (genotype AeUS) = assay: Test Example 2-1: anti-HBV assay in PXB-cells (fresh human hepatocytes); assay type: cell-based, hepatitis B virus; conditions: PXB-cells infected with HBV genotype AeUS, culture supernatant on day 32 post infection
Protocol: Using fresh human hepatocytes (PXB-cells, manufactured by PhenixBio Co., Ltd.) collected from a PXB mouse (a chimeric mouse with human hepatocytes), the anti-HBV activity of the representative compounds was evaluated in the following procedure.
as §1
DMEM (manufactured by Sigma)+0.25 μg/mL insulin (manufactured by Wako)+1% penicillin/streptomycin. (manufactured by Sigma)+20 mmol/L HEPES (manufactured by Sigma)+15 μg/mL L-proline (manufactured by Sigma)+50 nmol/L dexamethasone (manufactured by Sigma)+5 ng/mL EGF (manufactured by Peprotech)+0.1 mmol/L ascorbic acid 2-phosphate (manufactured by Wako)+10% FBS+2% DMSO
Each of the test compounds) was further added to the medium to prepare a test solution containing each of the test compounds at various concentrations.
(1) PXB-cells seeded at a seeding density of 2.1×10^5 cells/cm^2 in a 96-well microliter plate were incubated in a 5% CO2 incubator at 37° C. until a day on which the cells were infected.
(2) HBV (genotype AeUS) derived from a PXB mouse serum was suspended in the medium containing 4% PEG-8000, and added to the plate of (1) at about 10 copies/cell such that the PXB cells were infected (100 μL/well), and the plate was incubated in a 5% CO2 incubator at 37° C. for 1 day.
(3) The culture supernatant on day 1 post infection was removed and the cells were washed three times with DMEM containing 10% FBS and 1% penicillin/streptomycin. Then, the medium was added to the plate (100 μL/well) and the plate was incubated in a 5% CO2 incubator at 37° C. for 1 day.
(4) The culture supernatant on day 2 post infection was removed and the cells were washed three times with DMEM containing 10% FBS and 1% penicillin/streptomycin. Then, the medium was added to the plate (100 μL/well) and the plate was incubated in a 5% CO2 incubator at 37° C. for 5 days.
(5) The culture supernatant on day 7 post infection was removed, the medium was added to the plate (100 μL/well), and the plate was incubated in a 5% CO2 incubator at 37° C. for 5 days.
(6) The culture supernatant on day 12 post infection was removed, the medium was added to the plate (100 μL/well), and the plate was incubated in a 5% CO2 incubator at 37° C. for 5 days.
(§2) (7) The culture supernatant on day 17 post infection was removed, the test solution was added to the plate (100 μL/well), and the plate was incubated in a 5% CO2 incubator at 37° C. for 5 days. As a control without the compound added, the medium was added to the plate (100 μL/well) and the plate was incubated in a 5% CO2 incubator at 37° C. for 5 days.
as §2, with “(8)” for “(7)”, “22” for “17”
as §2, with “(9)” for “(7)”, “27” for “17”
(10) The culture supernatant on day 32 post infection was collected.
(11) The collected culture supernatant on day 32 post infection was purified with a QIAamp (registered trademark) DNA Blood Mini Kit (manufactured by QIAGEN). The amount of HBV-DNA in the obtained solution was absolutely quantified by a real-time PCR method. In addition, the amount of HBsAg in the culture supernatant was absolutely quantified by chemiluminescent enzyme immunoassay using Lumipulse (registered trademark) HBsAg-HQ (manufactured by Fujirebio Inc.). A relative viral load (%) with respect to a control without the compound added was each calculated. […]

[1] = Hepatitis B virus, read-out: IC50 HBV-DNA
[2] = Hepatitis B virus, read-out: IC50 HBsAg
[3] = Hepatitis B virus, Hepatocyte, read-out: IC50 HBV-DNA
[4] = Hepatitis B virus, Hepatocyte, read-out: IC50 HBsAg

Structure (SMILES)	pIC50 (HBV; [1])	pIC50 (HBV; [2])	further results
Cc1nc2ccc(-n3cc(C(=O)O)c(=O)cc3-c3ccc(N4CC[C@@H](OCc5ccc(F)cc5)C4)cc3)cc2s1 [Example 8, (R)-6-(4-(3-((4-Fluorobenzyl)oxy)pyrrolidin-1-yl)phenyl)-1-(2-methylbenzo[d]thiazol-6-yl)-4-oxo-1,4-dihydropyridine-3-carboxylic acid]	7.70	7.72	
COc1cc(-c2cc(=O)c(C(=O)O)cn2-c2ccc3nc(N4CCOCC4)sc3c2)ccc1N1CCCC1 [Example 4-2, 6-(3-methoxy-4-(pyrrolidin-1-yl)phenyl)-1-(2-morpholinobenzo[d]thiazol-6-yl)-4-oxo-1,4-dihydropyridine-3-carboxylic acid]	7.96	8.28	
O=C(O)c1cn(-c2ccc3nc(N4CCOCC4)sc3c2)c(-c2ccc(N3CCCC3)c(Br)c2)cc1=O [Example 5-2, 6-(3-bromo-4-(pyrrolidin-1-yl)phenyl)-1-(2-morpholinobenzo[d]thiazol-6-yl)-4-oxo-1,4-dihydropyridine-3-carboxylic acid]	8.92	8.80	
COCCN(CCOC)c1nc2ccc(-n3cc(C(=O)O)c(=O)cc3-c3ccc(N4CCCC4)c(Br)c3)cc2s1 [Example 5-3, 1-(2-(bis(2-methoxyethyl)amino)benzo[d]thiazol-6-yl)-6-(3-bromo-4-(pyrrolidin-1-yl)phenyl)-4-oxo-1,4-dihydropyridine-3-carboxylic acid]			pIC50 (HBV (genotype AeUS); [3]): 7.60; pIC50 (HBV (genotype AeUS); [4]): 7.28
Cc1nc2ccc(-n3cc(C(=O)O)c(=O)cc3-c3ccc(N(C)C)cc3)cc2s1 [Example 1, 6-(4-(dimethylamino)phenyl)-1-(2-methylbenzo[d]thiazol-6-yl)-4-oxo-1,4-dihydropyridine-3-carboxylic acid]	6.92	6.92	
CCN1CCN(c2nc3ccc(-n4cc(C(=O)O)c(=O)cc4-c4ccc(N5CCCC5)cc4)cc3s2)CC1 [Example 3-9, 1-(2-(4-ethylpiperazin-1-yl)benzo[d]thiazol-6-yl)-4-oxo-6-(4-(pyrrolidin-1-yl)phenyl)-1,4-dihydropyridine-3-carboxylic acid]	8.46	8.22	
COc1cc(-c2cc(=O)c(C(=O)O)cn2-c2ccc3nc(C)sc3c2)ccc1N1CCCC1 [Example 4-1, 6-(3-methoxy-4-(pyrrolidin-1-yl)phenyl-1)-(2-methylbenzo[d]thiazol-6-yl)-4-oxo-1,4-dihydropyridine-3-carboxylic acid]			pIC50 (HBV; read-out: IC50 HBV-DNA): 7.74; pIC50 (HBV; read-out: IC50 HBsAg): 7.74
O=C(O)c1cn(-c2ccc3ncsc3c2)c(-c2ccc(-c3ccc(F)cc3)s2)cc1=O [Example 14, 1-(Benzo[d]thiazol-6-yl)-6-(5-(4-fluorophenyl)thiophen-2-yl)-4-oxo-1,4-dihydropyridine-3-carboxylic acid]	7.00	7.04	
COCCN1CCN(c2nc3ccc(-n4cc(C(=O)O)c(=O)cc4-c4ccc(N5CCCC5)cc4)cc3s2)CC1 [Example 3-14, 1-(2-(4-(2-methoxyethyl)piperazin-1-yl)benzo[d]thiazol-6-yl)-4-oxo-6-(4-(pyrrolidin-1-yl)phenyl)-1,4-dihydropyridine-3-carboxylic acid]			pIC50 (HBV (genotype AeUS); [3]): 7.62; pIC50 (HBV (genotype AeUS); [4]): 7.05
COCCN(CCOC)c1nc2ccc(-n3cc(C(=O)O)c(=O)cc3-c3ccc(N4CCCC4)c(Cl)c3)cc2s1 [Example 6-2]			pIC50 (HBV (genotype AeUS); read-out: IC50 HBV-DNA): 7.60; pIC50 (HBV (genotype AeUS); read-out: IC50 HBsAg): 7.09
COCCN(CCOC)c1nc2ccc(-n3cc(C(=O)O)c(=O)cc3-c3ccc(N4CC[C@@H](OC)C4)cc3)cc2s1 [Example 10-3]			pIC50 (HBV (genotype AeUS); read-out: IC50 HBV-DNA): 7.33; pIC50 (HBV (genotype AeUS); read-out: IC50 HBsAg): 7.25
COCCN(CCOC)c1nc2ccc(-n3cc(C(=O)O)c(=O)cc3-c3ccc(N4CCCC4)cc3)cc2s1 [Example 3-6, 1-(2-(bis(2-methoxyethyl)amino)benzo[d]thiazol-6-yl)-4-oxo-6-(4-(pyrrolidin-1-yl)phenyl)-1,4-dihydropyridine-3-carboxylic acid]	8.41	8.52	
O=C(O)c1cn(-c2ccc3nc(NCc4ccccn4)sc3c2)c(-c2ccc(N3CCCC3)cc2)cc1=O [Example 3-12, 4-oxo-1-(2-((pyridin-2-ylmethyl)amino)benzo[d]thiazol-6-yl)-6-(4-(pyrrolidin-1-yl)phenyl)-1,4-dihydropyridine-3-carboxylic acid]	8.54	8.62	
COc1nc2ccc(-n3cc(C(=O)O)c(=O)cc3-c3ccc(N4CCCC4)cc3)cc2s1 [Example 3-5, 1-(2-methoxybenzo[d]thiazol-6-yl)-4-oxo-6-(4-(pyrrolidin-1-yl)phenyl)-1,4-dihydropyridine-3-carboxylic acid]	8.40	8.10	
O=C(O)c1cn(-c2ccc3nc(N4CCOCC4)sc3c2)c(-c2ccc(N3CCCC3)c(Cl)c2)cc1=O [Example 6-1, 6-(3-chloro-4-(pyrrolidin-1-yl)phenyl)-1-(2-morpholinebenzo[d]thiazol-6-yl)-4-oxo-1,4-dihydropyridine-3-carboxylic acid]			pIC50 (HBV; read-out: IC50 HBV-DNA): 8.00; pIC50 (HBV; read-out: IC50 HBsAg): 8.42

Reference: patent US11161830B2, “4-pyridone compound or salt thereof, and pharmaceutical composition and formulation including same” (priority 2017, dated 2021)
